The source of these data is patent US9327008B2, “Cell-permeant peptide-based inhibitor of kinases” (Purdue Research Foundation, priority 2008, dated 2016).

Test [1] has as its system IL-1β expression in rat primary cortical astrocyte cultures. The settings on record: 1 mM or 3 mM MK2i with TNF-α 5 or 10 ng/ml; 18-22 hours.
Procedure: Primary rat astrocytes were isolated from embryonic day 18 Sprague Dawley rat cortices. […] Briefly, the rat cortexes were triturated with a 1 ml pipet aid until most of the large cortex pieces were dispersed. After larger tissue fragments were allowed to settle, the supernatant was collected, in a 15 ml conical tube, and pelleted by centrifugation at 1100 rpm for 1 minute. The resulting supernatant was discarded and the pellet resuspended in neurobasal media (10% horse serum, 3 mM glutamine). The astrocytes then were seeded in the petri dishes and grown until they were confluent (80-95%) after which time they were passed. Astrocytes were passed 1:4, grown to 80-95% confluency, then rinsed twice with PBS. Different treatment types were applied to each corresponding petri dish for 18-22 hours. There was a total of 1 ml of media (neurobasal media with 10% horse serum, 3 mM glutamine) plus treatment in each petri dish. […]
After 18-22 hours, the cells were rinsed with PBS, scraped into a small centrifuge tube using a lysis buffer (8 M urea, 4% CHAPS, 10 mM DTT), and disrupted by using a Disruptor Genie™ (Scientific Industries, Bohemia, N.Y.) for 2 hours. The cells were pelleted by centrifugation at 17 krpm for 15 minutes, the supernatant (cell lysate) collected and the total protein concentration quantified (Pierce BCA Protein Assay kit, Thermo Fisher Scientific, Rockford, Ill.).
Test [2] relates to IL-1β induced IL-6 expression in mesothelial cells (CRL-9444). The test can be described thus: IL-6 ELISA, mesothelial cells induced with IL-1β. The class given is cell-based. The settings on record: IL-1β 1 ng/ml. On the technique in general: An ELISA detects its analyte on a solid surface through an enzyme-linked reagent.
Procedure: A cell line of pleural mesothelial cells (CRL-9444) was purchased from American Type Culture Collection. Cells were maintained and seeded in Medium 199 with Earle's BSS and 0.75 mM L-glutamine (Mediatech, Inc., Manassas, Va.), 1.25 g/L sodium bicarbonate (Sigma, St. Louis, Mo.), 3.3 nM epidermal growth factor (MBL International, Woburn, Mass.), 40 nM hydrocortisone (Sigma), 870 nM insulin (MBL International), 20 mM HEPES (Sigma), trace elements mixture B (Mediatech, Inc.), 10% fetal bovine serum (FBS) (Hyclone, Waltham, Mass.) and 1% penicillin/streptomycin (Mediatech, Inc.). Prior to treating cells with therapeutic inhibitor peptides, cells were allowed to acclimate in serum-free media consisting of only Medium 199 with Earle's BSS. L-glutamine, sodium bicarbonate, HEPES, trace elements mixture B, and penicillin/streptomycin (concentrations and suppliers as above) for 24 hours prior to treatment with cytokines and/or inhibitor peptides. […] For all cell culture experiments, the cell-penetrating MK2 inhibitor peptide sequence [sequence] [SEQ ID NO: 11] was used.
IL-6 analysis was performed with a IL-6 ELISA kit (PeproTech, Inc., Rocky Hill, N.J.). Briefly, the plate was prepared as follows. The capture antibody (antigen-affinity purified goat anti-hIL-6+2.5 mg D-mannitol) was diluted with phosphate buffered saline (PBS) to a concentration of 1 μg/ml and added to the each well of the plate. The plate was sealed and incubated at room temperature overnight. The wells then were aspirated to remove liquid, and washed 4 times using wash buffer (300 μl per well of 0.05% Tween-20 in PBS). After the last wash, the plate was inverted to remove residual buffer, and blotted on a paper towel. Block buffer (300 μl per well of 1% BSA in PBS) was added, the plate incubated for at least 1 hour at room temperature, aspirated and washed 4 times.
Standards (from 2 ng/ml to zero) and samples were prepared in diluent, immediately added to each well in triplicate, and incubated at room temperature for at least 2 hours on a plate shaker adjusted to 300 rpm. […] Following the incubation, the plate was aspirated, washed 4 times, avidin-horse radish peroxidase (HRP) conjugate added ((5.5 μl:10994.5 μl diluent) (100 μl) to each well, incubated for 30 minutes at room temperature on a plate shaker adjusted to 300 rpm, aspirated, and washed 4 times. To each well then was added ABTS Liquid Substrate Solution (Sigma) (100 μl). The plate was incubated at room temperature for color development on a plate shaker adjusted to 300 rpm. Absorbance was measured at 405 nm and 650 nm (650 nm was the wavelength correction subtracted from each 405 nm measurement) using a Spectramax M5 Microplate Reader (Molecular Devices) every 5 minutes for 50 minutes. Hoeschst 33342 nuclear stain (Invitrogen) was used to quantify cell number on the basis of DNA quantity. All results were run in triplicate and normalized to cell number.
One-way ANOVA analyses were used to determine statistically significant increases or decreases in parameters of interest. Significant differences were analyzed with Tukey HSD post hoc comparisons. A significance level of α=0.05 was used in cytokine analyses.
Mesothelial cells were incubated with IL-1β (1 ng/ml) (to induce IL-6 expression) and/or different concentrations of therapeutic inhibitor peptide. The commercially available protein kinase inhibitor Rottlerin was introduced as an inhibitor of both MK2 and PRAK.

In the case of YARAAARQARAKALARQLGVAA, the “level of expression of IL-1β (FIG. 10)” value in test [1] is “able to inhibit”. The entries for the “IL-1β induced IL-6 expression (FIG. 7)” value in test [2] (different concentrations of peptide) and in test [2] (peptide 3 mM (highest concentration)) were “inhibited” and “significantly reduced”, respectively. In addition, the “time at which significant reduction of IL-1β induced IL-6 expression occurs” value in test [2] (peptide 3 mM) was determined as 6 h.
